Results published in US9198420B2, “Rodenticidal norbormide analogues” (priority 2012, dated 2015).
Read-outs that look alike come from different tables or passages of the source.

Key:
[1] = tested on: rat caudal artery; experiment: Rat caudal artery ring contractile force (vasoconstrictory activity); set-up: species or system rat (male Wistar)
Experimental: Male Wistar rats (150-250 g) were obtained from Charles River Italia (Milano, Italy) and killed by decapitation. Ventral caudal artery was isolated, placed in Tyrode solution at room temperature and cleaned of extraneous fatty and connective tissue under a dissection microscope. All vessels were cut into rings 2 mm long, mounted on a custom-built plexiglass support by means of two intraluminal tungsten wires and placed in 20 mL double-jacketed organ baths filled with Tyrode solution of the following composition (mM): NaCl 125, KCl 5, CaCl2 2.7, MgSO4 1, KH2PO4 1.2, NaHCO3 25 and glucose 11, maintained at 37° C., pH 7.35, bubbled with 95% O2 and […]. The endothelium was removed by gently rubbing the lumen of the rings with a very thin rough-surfaced tungsten wire (caudal artery). The mechanical activity of the rings was detected by means of an isometric force transducer (Ugo Basile, Comerio, Italy) coupled to a pen recorder (Ugo Basile, Comerio, Italy). Rings were passively stretched to impose a resting tension (2 g) and were allowed to equilibrate for 60 min. After equilibration, each ring was repeatedly simulated with both KCl (90 mM) and phenylephrine (10 μM) until reproducible responses were obtained. To verify the absence of the endothelium, rings contracted with 1 μM phenylephrine were exposed to […] carbamylcholine. […] Each compound was tested for the vasoconstrictor activity at a concentration of 50 μM, which has been previously reported to be the one evoking the maximal response to norbormide. The contractile responses to the compounds were expressed as percent of the 90 mM KCl response.

[2] = tested on: Sprague Dawley rats; experiment: In vivo lethality, intravenous injection via the tail; set-up: species or system rat (Sprague Dawley); settings: 20 mg/Kg, rat
Experimental: (§1) Sprague Dawley rats (150-200 g) were used to appraise the rodenticidal activity of the compounds put forward for in vivo evaluation. Briefly, prior to administration the compounds were dissolved in 0.2 M hydrochloric acid (5% DMSO overall), to the desired dose, and without delay either injected intravenously, via the tail, or orally gavaged. All treated animals were housed in a quiet room and monitored every minute (i.v) or every 15 min (oral) to verify early signs of toxicity.

[3] = Rat serum assay (release of NRB or NRB analogue); assay type: in vitro ADME; settings: 80% rat serum, 37° C., 3 h, n = 3
Experimental: The hydrolytic stability of compounds of the invention in rat blood was evaluated using in vitro rat serum obtained from Sigma-Aldrich and stored at −78° C. Similar assay conditions to those reported by Li Di and co-workers (Int. J. Pharm. 2005, 297, 110-119) were followed [200 μL total volume, 80% rat serum (diluting with phosphate buffer (0.1 M, pH 7.4)), at a final compound concentration of 200 μM, 2.5% DMSO overall, 37° C., 3 h, n=3] using an Eppendorf Thermomixer Compact. Reactions were quenched by transferring 150 μL of the incubation mixture to 450 μL of ice-cold acetonitrile, affording a final compound/NRB or NRB analogue concentration of 50 μM. Samples were centrifuged at 14,500×g for 15 min using an Eppendorf Mini Spin Plus centrifuge, at ambient temperature. 400 μL of the supernatant was removed and transferred to clean tubes. Analysis was by RP-LCMS at an injection volume of 20 μL. Each compound and corresponding NRB or NRB analogue were subjected to external calibration curves at 50 μM, 100 μM and 200 μM to allow conversion of absorbance unit area into nmol, from which the percentage of NRB or NRB analogue released from each compound was calculated.

[4] = Simulated gastric fluid (SGF) hydrolytic stability assay; assay type: physicochemical; settings: simulated gastric fluid without pepsin, pH 1.2, 37° C., 1 h, n = 3
Experimental: All in vivo candidates were subjected to a 1 h hydrolytic stability appraisal in the presence of SGF, without pepsin (United States Pharmacopoeia 24) [200 μL total volume, sodium chloride solution (0.03 M) acidified to pH 1.2 with concentrated hydrochloric acid, at a final compound concentration of 200 μM, 2.5% DMSO overall, 37° C., n=3], to investigate any potential chemical instabilities that may occur in the acidic environment of the stomach prior to uptake. Analysis was by RP-LCMS at an injection volume of 5 μL.

[5] = tested on: Sprague Dawley rats; experiment: In vivo lethality, oral gavage; set-up: species or system rat (Sprague Dawley); settings: rat
Experimental: as §1

[6] = Table 5, compounds of formula (III)
[7] = Table 7, compounds of formula (V)

Compound | % NRB released, Rat Serum [3] [%] | Vasoconstriction: maximum contractile effect as a % of 90 mM KCl contraction [1, 6] [%] | Vasoconstriction: maximum contractile effect as a % of 90 mM KCl contraction ([1]; n = 3, pre-cleavage, Table 6) [%] | % NRB released, Hydrolytic Stability [4] [%] | other results
O=C(O)CN1C(=O)C2C3C=C(C(O)(c4ccccc4)c4ccccn4)C(C3=C(c3ccccc3)c3ccccn3)C2C1=O (stereo not drawn) [Compound 107, N-Carboxymethyl-5-(α-hydroxy-α-2-pyridylbenzyl)-7-(α-2-pyridylbenzylidene)-5-norbornene-2,3-dicarboximide] |  |  |  |  | Emax ([1]; Table 7, compounds of formula (V), read-out: Vasoconstriction: maximum contractile effect as a % of 90 mM KCl contraction): ≥ 132%; Vasoconstriction: maximum contractile effect as a % of 90 mM KCl contraction ([1]; n = 3, Table 8): ≧132%; In vivo lethality (i.v.) ([2]; n = 3, Table 8): yes^b
O=C(CCCCCCCCCCC(=O)OCCN1C(=O)C2C3C=C(C(O)(c4ccccc4)c4ccccn4)C(C3=C(c3ccccc3)c3ccccn3)C2C1=O)OCCN1C(=O)C2C3C=C(C(O)(c4ccccc4)c4ccccn4)C(C3=C(c3ccccc3)c3ccccn3)C2C1=O (stereo not drawn) [Compound 142, N-2′-Dodecanedioyloxyethyl-5-(α-hydroxy-α-2-pyridylbenzyl)-7-(α-2-pyridylbenzylidene)-5-norbornene-2,3-dicarboximide dimer] | <5 | 0 | 0 | 0 | 
CC(CN1C(=O)C2C3C=C(C(O)(c4ccccc4)c4ccccn4)C(C3=C(c3ccccc3)c3ccccn3)C2C1=O)OC(=O)C=Cc1ccccc1 (stereo not drawn) [Compound 135, N-2′-Cinnamoyloxypropyl-5-(α-hydroxy-α-2-pyridylbenzyl)-7-(α-2-pyridylbenzylidene)-5-norbornene-2,3-dicarboximide] | 33.8 ± 6.1 |  |  |  | Vasoconstriction: maximum contractile effect as a % of 90 mM KCl contraction ([1]; Table 1, compound at 50 μM): 0%; Vasoconstriction: maximum contractile effect as a % of 90 mM KCl contraction ([1]; Table 4, pre-cleavage, n = 3): 0%; % NRB released, Hydrolytic Stability (simulated gastric fluid) ([4]; footnote c: compounds not exhibiting vasoconstriction): 0^c %
O=C(C=Cc1ccc(Cl)cc1)OCCN1C(=O)C2C3C=C(C(O)(c4ccccc4)c4ccccn4)C(C3=C(c3ccccc3)c3ccccn3)C2C1=O (stereo not drawn) [Compound 129, N-[2′-(4″-Chlorocinnamoyloxy)ethyl]-5-(α-hydroxy-α-2-pyridylbenzyl)-7-(α-2-pyridylbenzylidene)-5-norbornene-2,3-dicarboximide] |  |  |  |  | Emax ([1]; Table 1, read-out: Vasoconstriction: maximum contractile effect as a % of 90 mM KCl contraction): 0%; Vasoconstriction: maximum contractile effect as a % of 90 mM KCl contraction ([1]; Table 4, pre-cleavage, n = 3): 0%; In vivo lethality (oral) ([5]; 20 mg/Kg, n = 2): yes^h,i; In vivo lethality (oral) ([5]; 40 mg/Kg, n = 2): yes^h,i; In vivo lethality (i.v.) ([2]; n = 2): yes^f
O=C1C2C3C=C(C(O)(c4ccccc4)c4ccccn4)C(C3=C(c3ccccc3)c3ccccn3)C2C(=O)N1CCO (stereo not drawn) [Compound 102, N-2′-Hydroxyethyl-5-(α-hydroxy-α-2-pyridylbenzyl)-7-(α-2-pyridylbenzylidene)-5-norbornene-2,3-dicarboximide] |  |  |  |  | Vasoconstriction: maximum contractile effect as a % of 90 mM KCl contraction [1, 7]: ≧132%; Vasoconstriction: maximum contractile effect as a % of 90 mM KCl contraction ([1]; n = 3, Table 8): ≧132%; In vivo lethality (oral) ([5]; 20 mg/Kg, n = 3, Table 8): yes^c,d; In vivo lethality (oral) ([5]; 40 mg/Kg, n = 3, Table 8): yes^c,d; In vivo lethality (i.v.) ([2]; n = 3, Table 8): yes^b
NCCN1C(=O)C2C3C=C(C(O)(c4ccccc4)c4ccccn4)C(C3=C(c3ccccc3)c3ccccn3)C2C1=O (stereo not drawn) [Compound 106, N-2′-Aminoethyl-5-(α-hydroxy-α-2-pyridylbenzyl)-7-(α-2-pyridylbenzylidene)-5-norbornene-2,3-dicarboximide] |  |  |  |  | Vasoconstriction: maximum contractile effect as a % of 90 mM KCl contraction [1, 7]: ≧132%; Vasoconstriction: maximum contractile effect as a % of 90 mM KCl contraction ([1]; n = 3, Table 8): ≧132%; In vivo lethality (i.v.) ([2]; n = 3, Table 8): yes^b
O=C(CCC(=O)OCN1C(=O)C2C3C=C(C(O)(c4ccccc4)c4ccccn4)C(C3=C(c3ccccc3)c3ccccn3)C2C1=O)OCN1C(=O)C2C3C=C(C(O)(c4ccccc4)c4ccccn4)C(C3=C(c3ccccc3)c3ccccn3)C2C1=O (stereo not drawn) [Compound 21, 5-(α-Hydroxy-α-2-pyridylbenzyl)-7-(α-2-pyridylbenzylidene)-N-succinoyloxymethyl-5-norbornene-2,3-dicarboximide dimer] | 29.6 ± 5.4 | 0 | 0 | 0 | 
O=C(CCCCCCCCCCC(=O)OCN1C(=O)C2C3C=C(C(O)(c4ccccc4)c4ccccn4)C(C3=C(c3ccccc3)c3ccccn3)C2C1=O)OCN1C(=O)C2C3C=C(C(O)(c4ccccc4)c4ccccn4)C(C3=C(c3ccccc3)c3ccccn3)C2C1=O (stereo not drawn) [Compound 25, N-Dodecanedioyloxymethyl-5-(α-hydroxy-α-2-pyridylbenzyl)-7-(α-2-pyridylbenzylidene)-5-norbornene-2,3-dicarboximide dimer] | <5 | 0 | 0 | 0 | 
O=C(CCCCCCC(=O)OCCN1C(=O)C2C3C=C(C(O)(c4ccccc4)c4ccccn4)C(C3=C(c3ccccc3)c3ccccn3)C2C1=O)OCCN1C(=O)C2C3C=C(C(O)(c4ccccc4)c4ccccn4)C(C3=C(c3ccccc3)c3ccccn3)C2C1=O (stereo not drawn) [Compound 140, 5-(α-Hydroxy-α-2-pyridylbenzyl)-7-(α-2-pyridylbenzylidene)-N-2′-suberoyloxyethyl-5-norbornene-2,3-dicarboximide dimer] | 9.9 ± 1.3 | 0 | 0 | 0 | 
O=C(CCCCC(=O)OCCN1C(=O)C2C3C=C(C(O)(c4ccccc4)c4ccccn4)C(C3=C(c3ccccc3)c3ccccn3)C2C1=O)OCCN1C(=O)C2C3C=C(C(O)(c4ccccc4)c4ccccn4)C(C3=C(c3ccccc3)c3ccccn3)C2C1=O (stereo not drawn) [Compound 139, N-2′-Adipoyloxyethyl-5-(α-hydroxy-α-2-pyridylbenzyl)-7-(α-2-pyridylbenzylidene)-5-norbornene-2,3-dicarboximide dimer] | 11.7 ± 1.6 | 20 | 20 | 0 | 
O=C(CCC(=O)OCCN1C(=O)C2C3C=C(C(O)(c4ccccc4)c4ccccn4)C(C3=C(c3ccccc3)c3ccccn3)C2C1=O)OCCN1C(=O)C2C3C=C(C(O)(c4ccccc4)c4ccccn4)C(C3=C(c3ccccc3)c3ccccn3)C2C1=O (stereo not drawn) [Compound 138, 5-(α-Hydroxy-α-2-pyridylbenzyl)-7-(α-2-pyridylbenzylidene)-N-2′-succinoyloxyethyl-5-norbornene-2,3-dicarboximide dimer] | 7.7 ± 0.2 | 0 | 0 | 0 | 
O=C(CCCCCCC(=O)OCN1C(=O)C2C3C=C(C(O)(c4ccccc4)c4ccccn4)C(C3=C(c3ccccc3)c3ccccn3)C2C1=O)OCN1C(=O)C2C3C=C(C(O)(c4ccccc4)c4ccccn4)C(C3=C(c3ccccc3)c3ccccn3)C2C1=O (stereo not drawn) [Compound 23, 5-(α-Hydroxy-α-2-pyridylbenzyl)-7-(α-2-pyridylbenzylidene)-N-suberoyloxymethyl-5-norbornene-2,3-dicarboximide dimer] | 14.9 ± 5.0 | 0 | 0 | 0 | 
